Experimental data as given in patent US20230151049A1, “Compounds Useful in HIV Therapy” (priority 2020, published 2023).

Assay: in vivo
Details: single IM Example 39A 58 mg/kg
In short: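 Three male Wistar Han rats (200-250 g), not fasted, received a single intramuscular gastrocnemius injection of prodrug suspension at 20 mg/kg EFdA equivalent. Tail-vein blood was taken into NaF/Na2EDTA, mixed 1:1 with 100 mM ammonium acetate pH 4, frozen, and analysed by LC-MS/MS.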

C#C[C@]1(COP(=O)(N[C@@H](Cc2cc(F)cc(F)c2)C(=O)OCCCCCCCCCCCCCCCC)Oc2ccccc2)O[C@@H](n2cnc3c(N)nc(F)nc32)C[C@@H]1O (single isomer, unassigned) [Example 39A]
Mean concentration of EFdA (day 28): BQL (BQL = below quantification limit, 0.3 ng/mL for both) | Mean concentration of EFdA (day 35): BQL (BQL = below quantification limit, 0.3 ng/mL for both) | Mean concentration of EFdA (day 42): BQL (BQL = below quantification limit, 0.3 ng/mL for both) | Mean concentration of EFdA (day 49): BQL (BQL = below quantification limit, 0.3 ng/mL for both) | Mean concentration of EFdA (day 56): BQL (BQL = below quantification limit, 0.3 ng/mL for both) | Mean concentration of EFdA (day 63): BQL (BQL = below quantification limit, 0.3 ng/mL for both) | Mean concentration of EFdA (day 70): BQL (BQL = below quantification limit, 0.3 ng/mL for both) | Mean concentration of EFdA (day 77): BQL (BQL = below quantification limit, 0.3 ng/mL for both) | Mean concentration of EFdA (day 84): BQL (BQL = below quantification limit, 0.3 ng/mL for both) | concentration at 1 day (male, Wistar Han, rat, in vivo, day 1, read-out: Mean concentration of Example 39A): 17 ng/mL | concentration at 7 day (male, Wistar Han, rat, in vivo, day 7, read-out: Mean concentration of Example 39A): 13.2 ng/mL | concentration at 14 day (male, Wistar Han, rat, in vivo, day 14, read-out: Mean concentration of Example 39A): 6.43 ng/mL | concentration at 21 day (male, Wistar Han, rat, in vivo, day 21, read-out: Mean concentration of Example 39A): 8.77 ng/mL | concentration at 28 day (male, Wistar Han, rat, in vivo, day 28, read-out: Mean concentration of Example 39A): 7.98 ng/mL | concentration at 35 day (male, Wistar Han, rat, in vivo, day 35, read-out: Mean concentration of Example 39A): 3.56 ng/mL | concentration at 42 day (male, Wistar Han, rat, in vivo, day 42, read-out: Mean concentration of Example 39A): 2.61 ng/mL | concentration at 49 day (male, Wistar Han, rat, in vivo, day 49, read-out: Mean concentration of Example 39A): 2.45 ng/mL | concentration at 56 day (male, Wistar Han, rat, in vivo, day 56, read-out: Mean concentration of Example 39A): 3.42 ng/mL | concentration at 63 day (male, Wistar Han, rat, in vivo, day 63, read-out: Mean concentration of Example 39A): 2.7 ng/mL | concentration at 70 day (male, Wistar Han, rat, in vivo, day 70, read-out: Mean concentration of Example 39A): 1.68 ng/mL | concentration at 77 day (male, Wistar Han, rat, in vivo, day 77, read-out: Mean concentration of Example 39A): 1.18 ng/mL | concentration at 84 day (male, Wistar Han, rat, in vivo, day 84, read-out: Mean concentration of Example 39A): 1.39 ng/mL
